One experiment deals with T1, DGKα (Homo sapiens, UniProt P23743).
T1 construct: His; purchased Signal Chem D21-10BH
Put plainly: In vitro DGKα inhibition assay (ADP-Glo). Particulars: His-tagged human recombinant DGKα 0.1 nM, 50 μM ATP, 20 μM DLG, 90 minute incubation. It is filed as biochemical. As for the experimental part:
(§1) The DGKα and DGKζ biochemical reactions were performed using His-tagged human recombinant enzymes (Signal Chem, DGKα, #D21-10BH; DGKζ, #D30-10H)) and DLG (Dilauroyl-sn-glycerol) lipid substrate (Signal Chem, #D430-59). ADP-Glo assay was performed using ADP-Glo™ kinase Assay kit (Promega, #V9104). The reactions were carried out in assay buffer containing 40 mM Tris, pH 7.5, 0.1% CHAPS, 0.1% Prionex, 40 mM NaCl, 5 mM MgCl2, 1 mM CaCl2, and 1 mM DTT. DGKα reactions contained 0.1 nM DGKα, 50 μM ATP, and 20 μM DLG. And DGKζ reactions contained 0.4 nM DGKζ, 30 μM ATP, and 20 μM DLG.
(§2) Compounds were added with top concentration of 2 mM with 11 point, 3-fold dilution series. Enzyme solution (contains 2×DGK enzyme concentration in 1× assay buffer) was added to the plate in 2 μL/well volume, followed by 2 μL/well of substrate solution (contains 2× concentration of ATP and DLG substrate in 1× assay buffer). Plates were then centrifuged for 1 min at 1200 RPM and sealed or lidded. For 4 μL reaction volume, test compounds were therefore diluted 100× to final top concentration of 20 μM. After 90 minute incubation, reactions were quenched by addition of 2 μL/well Promega ADP-Glo Reagent, followed by centrifugation and lidding. After 60 min incubation, 2 μL/well Promega Kinase Detection Reagent was added, plates centrifuged, and incubated for 30 min. Plates were then read using Luminescence method on BMG PHERAstar FSX plate reader. Percent inhibition was calculated and IC50s were determined using 4-parameter fit in Genedata Screener. Labcyte Echo acoustic dispenser was used for compound addition, and Formulatrix Tempest liquid handler was used for all reagent dispenses.
A general note: In ADP-Glo the light output rises with the ADP produced.

The target in another experiment is T2, DGKζ (Homo sapiens, UniProt Q13574).
T2 construct: His; purchased Signal Chem D30-10H
Put plainly: In vitro DGKζ inhibition assay (ADP-Glo). To be noted: His-tagged human recombinant DGKζ 0.4 nM, 30 μM ATP, 20 μM DLG, 90 minute incubation. It is filed as biochemical. As for the experimental part: as §1, §2

A value given as a limit tells only on which side of the number the result lay.

T1 sequence (P23743 whole entry): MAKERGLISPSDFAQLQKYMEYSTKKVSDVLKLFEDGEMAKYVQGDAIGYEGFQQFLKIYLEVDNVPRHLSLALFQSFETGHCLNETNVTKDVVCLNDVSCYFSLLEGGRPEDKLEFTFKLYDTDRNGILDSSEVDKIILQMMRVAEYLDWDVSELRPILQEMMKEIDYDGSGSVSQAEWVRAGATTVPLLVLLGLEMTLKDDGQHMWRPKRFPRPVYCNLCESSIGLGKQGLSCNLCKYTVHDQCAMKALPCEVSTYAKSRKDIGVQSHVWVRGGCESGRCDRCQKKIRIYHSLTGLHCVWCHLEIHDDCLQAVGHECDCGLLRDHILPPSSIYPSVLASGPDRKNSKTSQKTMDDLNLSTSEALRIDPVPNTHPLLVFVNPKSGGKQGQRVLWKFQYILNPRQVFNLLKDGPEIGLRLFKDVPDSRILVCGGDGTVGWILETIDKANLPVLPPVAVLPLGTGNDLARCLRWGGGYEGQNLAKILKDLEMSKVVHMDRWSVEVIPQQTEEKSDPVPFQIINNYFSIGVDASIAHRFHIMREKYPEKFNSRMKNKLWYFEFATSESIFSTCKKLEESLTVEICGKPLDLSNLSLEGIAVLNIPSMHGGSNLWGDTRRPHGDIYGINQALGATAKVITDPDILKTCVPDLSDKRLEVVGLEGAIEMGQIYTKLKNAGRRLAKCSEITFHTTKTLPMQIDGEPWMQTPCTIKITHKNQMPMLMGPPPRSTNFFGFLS
T2 sequence (Q13574 whole entry): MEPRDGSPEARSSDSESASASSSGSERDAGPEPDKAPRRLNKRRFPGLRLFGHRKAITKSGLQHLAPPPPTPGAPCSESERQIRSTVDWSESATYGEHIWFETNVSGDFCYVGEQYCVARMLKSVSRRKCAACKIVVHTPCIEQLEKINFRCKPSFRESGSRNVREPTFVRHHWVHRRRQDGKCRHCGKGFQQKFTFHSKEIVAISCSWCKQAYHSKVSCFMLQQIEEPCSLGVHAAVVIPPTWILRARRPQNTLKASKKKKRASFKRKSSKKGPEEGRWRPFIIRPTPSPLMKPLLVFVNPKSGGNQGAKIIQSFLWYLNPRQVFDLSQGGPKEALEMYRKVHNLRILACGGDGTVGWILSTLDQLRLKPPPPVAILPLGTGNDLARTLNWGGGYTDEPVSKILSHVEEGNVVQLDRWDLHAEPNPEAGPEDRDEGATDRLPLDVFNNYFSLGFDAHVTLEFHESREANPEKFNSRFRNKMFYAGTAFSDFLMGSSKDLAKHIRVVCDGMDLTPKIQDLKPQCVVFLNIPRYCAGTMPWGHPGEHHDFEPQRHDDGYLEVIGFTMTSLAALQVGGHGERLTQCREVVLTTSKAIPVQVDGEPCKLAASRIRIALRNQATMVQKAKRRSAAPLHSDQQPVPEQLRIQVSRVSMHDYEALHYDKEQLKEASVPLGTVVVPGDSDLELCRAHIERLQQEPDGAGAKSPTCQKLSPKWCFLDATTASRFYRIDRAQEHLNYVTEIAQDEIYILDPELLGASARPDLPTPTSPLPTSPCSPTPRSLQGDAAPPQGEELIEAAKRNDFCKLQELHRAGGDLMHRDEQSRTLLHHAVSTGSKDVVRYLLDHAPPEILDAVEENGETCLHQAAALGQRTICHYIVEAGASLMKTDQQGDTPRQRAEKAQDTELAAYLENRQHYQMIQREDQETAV

As to `Cc1nc2c(N3C[C@@H](C)N(C(c4ccc(Cl)c(F)c4)C(C)C)C[C@@H]3C)nc3nncn3c2n1C[C@@H]1CCCO1` (single isomer, unassigned) [Example 23], the IC50 on DGKα and on DGKζ was < 0.02 µM throughout.

Regarding `Cc1nc2c(N3C[C@@H](C)N(C(c4ccc(C(F)(F)F)cc4)C4CC(F)(F)C4)C[C@@H]3C)cc3nncn3c2n1C[C@@H]1CCCO1` (single isomer, unassigned) [Example 49], the IC50 on DGKα and on DGKζ was < 0.02 µM each time.

As to `C[C@@H]1CN(c2cc3nncn3c3c2ncn3C[C@@H]2CCCO2)[C@@H](C)CN1C(c1ccc(Cl)cc1)[C@@H]1CC1(F)F` (single isomer, unassigned) [Example 50], the IC50 – broadly, the concentration that gives 50% inhibition – is < 0.02 µM on DGKα and 0.02 to 0.2 µM on DGKζ.

As to `CC(C)CC(c1ccc(Cl)cc1)N1C[C@H](C)N(c2cc3nncn3c3c2ncn3C[C@@H]2CCCO2)C[C@H]1C` (single isomer, unassigned) [Example 51], the IC50 on DGKα and on DGKζ was < 0.02 µM in each case.

`CC[C@@H]1CN(c2cc3nncn3c3c2nc(C)n3C[C@@H]2CCCO2)[C@@H](C)CN1C(c1ccc(Cl)cc1)C1CC(F)(F)C1` (single isomer, unassigned) [Example 52]: the IC50 at DGKα and at DGKζ was < 0.02 µM throughout.

For the compound `Cc1nc2c(N3C[C@@H](C)N(C(CC(C)C)c4ccc(Cl)cc4)C[C@@H]3C)nc3nncn3c2n1C[C@@H]1CCCO1` (single isomer, unassigned) [Example 53], the IC50 on DGKα and on DGKζ was < 0.02 µM in each case.

With `Cc1nc2c(N3C[C@@H](C)N([C@H](c4ccc(Cl)cc4)[C@H]4CC4(F)F)C[C@@H]3C)nc3nncn3c2n1C[C@@H]1CCCO1` (single isomer, unassigned) [Example 55], the IC50 on DGKα and at DGKζ was < 0.02 µM throughout.

For the compound `Cc1nc2c(N3C[C@@H](C)N([C@@H](c4ccc(Cl)cc4)[C@H]4CC4(F)F)C[C@@H]3C)nc3nncn3c2n1C[C@@H]1CCCO1` (single isomer, unassigned) [Example 56], the IC50 at DGKα and at DGKζ was < 0.02 µM in each case.

Take `C[C@@H]1CN(c2cc3nncn3c3c2ncn3C[C@@H]2CCCO2)[C@@H](C)CN1C(c1ccc(Cl)cc1)C1CC(F)(F)C1` (single isomer, unassigned) [Example 61]: the IC50 at DGKα and on DGKζ was < 0.02 µM throughout.

Take `Cc1nc2c(N3C[C@@H](C)N(C(c4ccc(Cl)cc4)C4CC(F)(F)C4)C[C@@H]3C)cc3nncn3c2n1C[C@@H]1CCCO1` (single isomer, unassigned) [Example 62]: the half-inhibitory concentration (IC50) on DGKα and on DGKζ was < 0.02 µM throughout.

For the compound `C[C@@H]1CN(c2nc3nncn3c3c2ncn3C[C@@H]2CCCO2)[C@@H](C)CN1C(c1ccc(C(F)F)c(F)c1)C1CC(F)(F)C1` (stereo partly drawn) [Example 2, 4-((2S,5R)-4-((3,3-Difluorocyclobutyl)(4-(difluoromethyl)-3-fluorophenyl)methyl)-2,5-dimethylpiperazin-1-yl)-1-(((S)-tetrahydrofuran-2-yl)methyl)-1H-[1,2,4]triazolo[3,4-b]purine], the IC50 at DGKα and at DGKζ was < 0.02 µM each time.

On to `Cc1nc2c(N3C[C@@H](C)N(C(c4ccc(C(F)F)cc4F)C4CC(F)(F)C4)C[C@@H]3C)nc3nncn3c2n1C[C@@H]1CCCO1` (stereo partly drawn) [Example 3, 4-((2S,5R)-4-((3,3-Difluorocyclobutyl)(4-(difluoromethyl)-2-fluorophenyl)methyl)-2,5-dimethylpiperazin-1-yl)-2-methyl-1-(((S)-tetrahydrofuran-2-yl)methyl)-1H-[1,2,4]triazolo[3,4-b]purine], for which the concentration for half-maximal inhibition (IC50) on DGKα and on DGKζ was < 0.02 µM each time.

Turning to `Cc1nc2c(N3C[C@@H](C)N(C(c4ccc(C(F)(F)F)cc4F)C4CC(F)(F)C4)C[C@@H]3C)nc3nncn3c2n1C[C@@H]1CCCO1` (stereo partly drawn) [Example 4, 4-((2S,5R)-4-((3,3-Difluorocyclobutyl)(2-fluoro-4-(trifluoromethyl)phenyl)methyl)-2,5-dimethylpiperazin-1-yl)-2-methyl-1-(((S)-tetrahydrofuran-2-yl)methyl)-1H-[1,2,4]triazolo[3,4-b]purine], the IC50 at DGKα and at DGKζ was < 0.02 µM in each case.

For the compound `Cc1nc2c(N3C[C@@H](C)N(C(c4ccc(Cl)cc4F)C4CC(F)(F)C4)C[C@@H]3C)nc3nncn3c2n1C[C@@H]1CCCO1` (stereo partly drawn) [Example 5, 4-((2S,5R)-4-((4-Chloro-2-fluorophenyl)(3,3-difluorocyclobutyl)methyl)-2,5-dimethylpiperazin-1-yl)-2-methyl-1-(((S)-tetrahydrofuran-2-yl)methyl)-1H-[1,2,4]triazolo[3,4-b]purine], the IC50 on DGKα and at DGKζ was < 0.02 µM each time.

In the case of `C[C@@H]1CN(c2nc3nncn3c3c2ncn3C[C@@H]2CCCO2)[C@@H](C)CN1C(c1ccc(Cl)cc1)C1CC1` (stereo partly drawn) [Example 10, 4-((2S,5R)-4-((4-Chlorophenyl)(cyclopropyl)methyl)-2,5-dimethylpiperazin-1-yl)-1-(((S)-tetrahydrofuran-2-yl)methyl)-1H-[1,2,4]triazolo[3,4-b]purine], the IC50 at DGKα and at DGKζ was < 0.02 µM each time.

Regarding `C[C@@H]1CN(c2nc3nncn3c3c2ncn3C[C@@H]2CCCO2)[C@@H](C)CN1C(c1ccc(C(F)(F)F)cn1)c1ccc(C(F)(F)F)cn1` [Example 19, 4-((2S,5R)-4-(Bis(5-(trifluoromethyl)pyridin-2-yl)methyl)-2,5-dimethylpiperazin-1-yl)-1-(((S)-tetrahydrofuran-2-yl)methyl)-1H-[1,2,4]triazolo[3,4-b]purine], the IC50 on DGKα and on DGKζ was < 0.02 µM in each case.

Consider `C[C@@H]1CN(c2nc3nncn3c3c2ncn3C[C@@H]2CCCO2)[C@@H](C)CN1C(c1ccc(Cl)cn1)c1ccc(Cl)cn1` [Example 20, 4-((2S,5R)-4-(Bis(5-chloropyridin-2-yl)methyl)-2,5-dimethylpiperazin-1-yl)-1-(((S)-tetrahydrofuran-2-yl)methyl)-1H-[1,2,4]triazolo[3,4-b]purine], for which the IC50 at DGKα and on DGKζ was < 0.02 µM each time.

`COc1ccc(C(C(C)C)N2C[C@H](C)N(c3nc4nncn4c4c3nc(C)n4C[C@@H]3CCCO3)C[C@H]2C)cc1F` (stereo partly drawn) [Example 24, 4-((2S,5R)-4-(1-(3-fluoro-4-methoxyphenyl)-2-methylpropyl)-2,5-dimethylpiperazin-1-yl)-2-methyl-1-(((S)-tetrahydrofuran-2-yl)methyl)-1H-[1,2,4]triazolo[3,4-b]purine]: the IC50 at DGKα and at DGKζ was < 0.02 µM in each case.

Regarding `Cc1nc2c(N3C[C@@H](C)N(C(c4ccc(C(F)F)cc4F)C(C)C)C[C@@H]3C)nc3nncn3c2n1C[C@@H]1CCCO1` (stereo partly drawn) [Example 25, 4-((2S,5R)-4-(1-(4-(Difluoromethyl)-2-fluorophenyl)-2-methylpropyl)-2,5-dimethylpiperazin-1-yl)-2-methyl-1-(((S)-tetrahydrofuran-2-yl)methyl)-1H-[1,2,4]triazolo[3,4-b]purine], the IC50 at DGKα and at DGKζ was < 0.02 µM in each case.

For `Cc1nc2c(N3C[C@@H](C)N([C@H](c4ccc(Br)cc4F)C(C)C)C[C@@H]3C)nc3nncn3c2n1C[C@@H]1CCCO1` [Example 26, 4-((2S,5R)-4-((S)-1-(4-Bromo-2-fluorophenyl)-2-methylpropyl)-2,5-dimethylpiperazin-1-yl)-2-methyl-1-(((S)-tetrahydrofuran-2-yl)methyl)-1H-[1,2,4]triazolo[3,4-b]purine], the IC50 on DGKα and at DGKζ was < 0.02 µM throughout.

On to `Cc1nc2c(N3C[C@@H](C)N([C@@H](c4ccc(Br)cc4F)C(C)C)C[C@@H]3C)nc3nncn3c2n1C[C@@H]1CCCO1` [Example 27, 4-((2S,5R)-4-((R)-1-(4-bromo-2-fluorophenyl)-2-methylpropyl)-2,5-dimethylpiperazin-1-yl)-2-methyl-1-(((S)-tetrahydrofuran-2-yl)methyl)-1H-[1,2,4]triazolo[3,4-b]purine], for which the concentration for half-maximal inhibition (IC50) on DGKα and on DGKζ was < 0.02 µM each time.

As for `Cc1nc2c(N3C[C@@H](C)N([C@H](c4ccc(Cl)cc4F)C(C)C)C[C@@H]3C)nc3nncn3c2n1C[C@@H]1CCCO1` [Example 28, 4-((2S,5R)-4-((S)-1-(4-Chloro-2-fluorophenyl)-2-methylpropyl)-2,5-dimethylpiperazin-1-yl)-2-methyl-1-(((S)-tetrahydrofuran-2-yl)methyl)-1H-[1,2,4]triazolo[3,4-b]purine], the IC50 at DGKα and on DGKζ was < 0.02 µM each time.
